According to patent US6914045B2, “Glycopeptide antibiotics” (Wyeth Holdings Corporation, priority 2001, dated 2005):
Values after ≈ are worked out from the molar mass of the structure shown.

How the values were obtained:
Experiment in all cases: in vitro antibacterial evaluation, MIC by broth dilution
Assay type in all cases: cell-based
[1] = test system: Staphylococcus sp.; details: broth dilution, 18 hours at 35° C.; for MIC Staphylococcus aureus (GC 1131): strain GC 1131
Outline: (§1)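 Following National Committee for Clinical Laboratory Standards recommendations (M7-A2), susceptibility was measured by dilution in Muller-Hinton II […]. Bacteria were seeded at 5×10^5 CFU/mL against compound concentrations from 64 down to 0.06 μg/mL.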

[2] = test system: Enterococcus sp.; details: broth dilution, 18 hours at 35° C.
Outline: as §1

[3] = test system: Streptococcus sp.; details: broth dilution, 18 hours at 35° C.
Outline: as §1

[4] = test system: Escherichia coli; details: 18 hours at 35° C.

MIC Staphylococcus aureus (GC 1131) ([1]; inoculum 5×10^5 CFU/mL): 2 µg/mL (≈ 1.44 µM)
MIC Staphylococcus aureus (ATCC 29213) ([1]; strain ATCC 29213): 1 µg/mL (≈ 0.72 µM)
MIC Staphylococcus aureus (GC 1131) [1]: 2 µg/mL (≈ 1.44 µM)
MIC Staphylococcus aureus (GC 3051) ([1]; strain GC 3051): 1 µg/mL (≈ 0.72 µM)
MIC Staphylococcus aureus (GC 3053) ([1]; strain GC 3053): 2 µg/mL (≈ 1.44 µM)
MIC Staphylococcus aureus (GC 4541) ([1]; strain GC 4541): 1 µg/mL (≈ 0.72 µM)
MIC Staphylococcus aureus (GC 4542) ([1]; strain GC 4542): 1 µg/mL (≈ 0.72 µM)
MIC Staphylococcus aureus-SMITH (GC 4543) ([1]; strain GC 4543): 1 µg/mL (≈ 0.72 µM)
MIC Staphylococcus aureus (GC 4544) ([1]; strain GC 4544): 2 µg/mL (≈ 1.44 µM)
MIC Staphylococcus aureus (GC 4545) ([1]; strain GC 4545): 1 µg/mL (≈ 0.72 µM)
MIC Coagulase Negative Staphylococcus (GC 4547) ([1]; strain GC 4547): 2 µg/mL (≈ 1.44 µM)
MIC Coagulase Negative Staphylococcus (GC 4548) ([1]; strain GC 4548): 1 µg/mL (≈ 0.72 µM)
MIC Coagulase Negative Staphylococcus (GC 4549) ([1]; strain GC 4549): 1 µg/mL (≈ 0.72 µM)
MIC Coagulase Negative Staphylococcus (GC 4551) ([1]; strain GC 4551): 2 µg/mL (≈ 1.44 µM)
MIC Enterococcus avium (GC 4558) [2]: 4 µg/mL (≈ 2.88 µM)
MIC Enterococcus faecalis (ATCC 29212) [2]: 4 µg/mL (≈ 2.88 µM)
MIC Enterococcus faecalis (GC 2242) [2]: 0.5 µg/mL (≈ 0.36 µM)
MIC Enterococcus faecalis (GC 2691) [2]: 4 µg/mL (≈ 2.88 µM)
MIC Enterococcus faecalis (GC 3059) [2]: 2 µg/mL (≈ 1.44 µM)
MIC Enterococcus faecalis (GC 4552) [2]: 2 µg/mL (≈ 1.44 µM)
MIC Enterococcus faecalis (GC 4553) [2]: 4 µg/mL (≈ 2.88 µM)
MIC Enterococcus faecalis (GC 4554) [2]: 4 µg/mL (≈ 2.88 µM)
MIC Enterococcus faecalis (GC 6189) [2]: 2 µg/mL (≈ 1.44 µM)
MIC Enterococcus faecium (GC 2243) [2]: 4 µg/mL (≈ 2.88 µM)
MIC Enterococcus faecium (GC 4556) [2]: 4 µg/mL (≈ 2.88 µM)
MIC Enterococcus faecium (GC 4557) [2]: 2 µg/mL (≈ 1.44 µM)
MIC Enterococcus faecalis (ATCC 29212) ([2]; inoculum 5×10^5 CFU/mL, strain ATCC 29212): 4 µg/mL (≈ 2.88 µM)
MIC Enterococcus faecalis (GC 2242) ([2]; inoculum 5×10^5 CFU/mL, strain GC 2242): 0.5 µg/mL (≈ 0.36 µM)
MIC Enterococcus faecium (GC 2243) ([2]; inoculum 5×10^5 CFU/mL, strain GC 2243): 4 µg/mL (≈ 2.88 µM)
MIC Enterococcus faecalis (GC 2691) ([2]; inoculum 5×10^5 CFU/mL, strain GC 2691): 4 µg/mL (≈ 2.88 µM)
MIC Enterococcus faecalis (GC 3059) ([2]; inoculum 5×10^5 CFU/mL, strain GC 3059): 2 µg/mL (≈ 1.44 µM)
MIC Enterococcus faecalis (GC 4552) ([2]; inoculum 5×10^5 CFU/mL, strain GC 4552): 2 µg/mL (≈ 1.44 µM)
MIC Enterococcus faecalis (GC 4553) ([2]; inoculum 5×10^5 CFU/mL, strain GC 4553): 4 µg/mL (≈ 2.88 µM)
MIC Enterococcus faecalis (GC 4554) ([2]; inoculum 5×10^5 CFU/mL, strain GC 4554): 4 µg/mL (≈ 2.88 µM)
MIC Enterococcus faecium (GC 4556) ([2]; inoculum 5×10^5 CFU/mL, strain GC 4556): 4 µg/mL (≈ 2.88 µM)
MIC Enterococcus faecium (GC 4557) ([2]; inoculum 5×10^5 CFU/mL, strain GC 4557): 2 µg/mL (≈ 1.44 µM)
MIC Enterococcus avium (GC 4558) ([2]; inoculum 5×10^5 CFU/mL, strain GC 4558): 4 µg/mL (≈ 2.88 µM)
MIC Enterococcus faecalis (GC 6189) ([2]; inoculum 5×10^5 CFU/mL, strain GC 6189): 2 µg/mL (≈ 1.44 µM)
MIC Streptococcus agalactiae (GC 4564) [3]: 0.12 µg/mL (≈ 0.0864 µM)
MIC Streptococcus pneumoniae (ATCC 6301) [3]: <0.06 µg/mL
MIC Streptococcus pneumoniae (GC 1894) [3]: <0.06 µg/mL
MIC Streptococcus pneumoniae (GC 4565) [3]: <0.06 µg/mL
MIC Streptococcus pyogenes (GC 4563) [3]: <0.06 µg/mL
MIC Streptococcus pneumoniae (ATCC 6301) ([3]; inoculum 5×10^5 CFU/mL, strain ATCC 6301): <0.06 µg/mL
MIC Streptococcus pneumoniae (GC 1894) ([3]; inoculum 5×10^5 CFU/mL, strain GC 1894): <0.06 µg/mL
MIC Streptococcus pyogenes (GC 4563) ([3]; inoculum 5×10^5 CFU/mL, strain GC 4563): <0.06 µg/mL
MIC Streptococcus agalactiae (GC 4564) ([3]; inoculum 5×10^5 CFU/mL, strain GC 4564): 0.12 µg/mL (≈ 0.0864 µM)
MIC Streptococcus pneumoniae (GC 4565) ([3]; inoculum 5×10^5 CFU/mL, strain GC 4565): <0.06 µg/mL
MIC Escherichia coli (ATCC 25922) [4]: 32 µg/mL (≈ 23 µM)
MIC Escherichia coli (GC 4559) [4]: 32 µg/mL (≈ 23 µM)
MIC Escherichia coli (GC 4560) [4]: 1 µg/mL (≈ 0.72 µM)
Compound: N=C1NCC(C(O)C2NC(=O)C(Cc3ccc(OC4OC(CO)C(OC5OC6COC(Cc7ccccc7)OC6C(O)C5O)C(O)C4O)cc3)NC(=O)C(CC3CCCCC3)NC(=O)CNC(=O)C(CO)NC(=O)C(C(O)C3CNC(=N)N3C3OC(CO)C(O)C(O)C3O)NC2=O)N1 (stereo not shown) [Example 200]
MIC Staphylococcus haemolyticus (GC 4546) ([1]; strain GC 4546): 1 µg/mL (≈ 0.72 µM)
